Laboratory results: patent publication US20200291391A1, “CROSS-LINKED EPITOPES AND METHODS OF USE THEREOF” (Indi Molecular, Inc., priority 2019, published 2020)
Entries after “also recorded” stand apart in the source; their conditions may differ. Where a SMILES comes first, the peptide text is derived from it. Bridges are numbered along the chain shown (N, C = ends). Triazole bridges read from a SMILES are 1,4-linked. Where no end group is shown, it is not given here. [ ]: non-standard residue; d: D form. Lys(N3) = [N-]=[N+]=NCCCC[C@H](N)C(=O)O; Pra = C#CC[C@H](N)C(=O)O

Legend:
epitope B2 = biological target: T1, epitope B2 (Homo sapiens, UniProt P01732, L47X); experiment: Epitope bound by ligand; type: binding
T1 construct: host or cells: synthetic peptide (per the listing)
Experimental: Epitope B2 ligand tfpkk (SEQ ID NO:21) and the three hit ligands selected against CD8 epitopes A2, B2, H, and J were tested for binding to CD8+ and CD8− cells by flow cytometry.

CD8+SupT1 cells = experiment: Flow cytometry binding to CD8+ cells; type: cell-based; settings: for selective binding to CD8+ cells in flow cytometry: SupT1 (CD8+) vs Jurkat (CD8-) cells, FIG. 11; for binding to CD8+SupT1 cells by flow cytometry: with the 1kPEG linker
Experimental: (§1) Three hits were left after this screening (Table 3). These hits were assessed in solid phase ELISA and in flow cytometry experiments.
(§2) Binding of krsah (SEQ ID NO:27) was detected on both CD8+SupT1 cells and CD8−Jurkat cells. The mean fluorescence intensity ratio to each of the ligands tfpkk (SEQ ID NO:21), krsah (SEQ ID NO:27), and snprk (SEQ ID NO:28) was determined (Table 4). The mean fluorescence intensity ratio of different amounts of the ligand tfpkk (SEQ ID NO:21) was determined (Table 5).
(§3) Binding of Biotin-1kPEG-tfpkk (SEQ ID NO:21) to CD8+SupT1 cells or CD8−Jurkat was performed at room temperature (RT) or 4° C.
(§4) Concentration of biotin-1kPEG-tfpkk (SEQ ID NO:21) and -nfyrr (SEQ ID NO:32) was titrated on SupT1 and Jurkat cells. The biotin-1kPEG-ligands were incubated with CD8+SupT1 cells and CD8−Jurkat cells at a concentrations of […].

CD8−Jurkat cells = experiment: Flow cytometry binding to CD8- cells; type: cell-based; settings: with the 1kPEG linker
Experimental: as §1, §2, §3, §4

[1] = biological target: T2, CD8 epitopes A, B, C, D, and E (Homo sapiens, UniProt P01732, M123X); experiment: Bead-coupled alkyne peptide screened with azide- and biotin-containing epitopes, alkaline phosphatase-streptavidin development; type: binding; settings: D, and E tested
T2 construct: host or cells: synthetic peptide (per the listing)
Experimental: The epitope E ligand used in the biligand is tfpkk (SEQ ID NO:21). It was determined that tfpkk (SEQ ID NO:21) binds to epitope E by screening an alkyne-containing tfpkk peptide (SEQ ID NO:21) coupled to a bead (FIG. 8) with azide- and biotin-containing epitopes A, B, C, D, and E (FIG. 9). The epitopes used in the screen were: Epitope A (a.a. 1-10): Biotin-PEG3-[Az4]-SQFRVSPLDR (SEQ ID NO:22); Epitope B (a.a. 24-32): Biotin-PEG3-[Az4]-VLLSNPTSG (SEQ ID NO:23); Epitope C (a.a. 58-77): Biotin-PEG3-KAAEGLDTQ-[Az4]-FSGKRLGDTF (SEQ ID NO:24); Epitope D (a.a. 68-83): Biotin-PEG3-FSGKRL-[Az4]-DTFVLTLSD (SEQ ID NO:25); Epitope E (a.a. 95-110): Biotin-PEG3-SALSNSI-[Az4]-YFSHFVPV (SEQ ID NO:26).
This is in agreement with docking calculations of binding affinities of the epitopes to tfpkk (SEQ ID NO:21) and a control peptide (krsah; SEQ ID NO:27) (Table 2).

| epitope bound (epitope B2) | color development of beads with alkaline phosphatase-linked streptavidin [1] | Compound | selective binding to CD8+ cells in flow cytometry (CD8+SupT1 cells) | binding to CD8−Jurkat cells by flow cytometry (CD8−Jurkat cells) | binding to CD8+SupT1 cells by flow cytometry (CD8+SupT1 cells) |
| --- | --- | --- | --- | --- | --- |
| bind to epitope B2 | – | C[C@H](O)[C@H]1NC(=O)[C@@H](Cc2ccc(O)cc2)NC(=O)[C@@H](Cc2c[nH]cn2)NC(=O)[C@@H](CCCCN)NC(=O)[C@@H](N)Cc2cn(nn2)CCCC[C@@H](C(N)=O)NC(=O)[C@@H](CC(N)=O)NC1=O [khytn] (H-[Pra][dK][dH][dY][dT][dN][Lys(N3)]-NH2; triazole 1-7; N-terminus assumed) | – | – | – |
| – | – | herlk: CD8 ligand hit of four epitope cocktail screening ([dH][dE][dR][dL][dK]) | weakly selective binding to CD8+ cells | – | – |
| – | – | krsah: CD8 ligand hit; control peptide in docking ([dK][dR][dS][dA][dH]) | – | detected; also recorded: also observed | can be detected |
| – | – | nsprw: CD8 ligand hit of four epitope cocktail screening ([dN][dS][dP][dR][dW]) | weak (and weakly selective) binding to CD8+ cells | – | – |
| bind to epitope B2 | color only when epitope E was used | tfpkk: CD8 ligand peptide; epitope E ligand used in the biligand ([dT][dF][dP][dK][dK]) | – | little binding | observed |
